Experimental data taken from patent US20250388544A1, “HETEROAROMATIC INHIBITORS OF ASTACIN PROTEINASES” (VIVORYON THERAPEUTICS N.V., priority 2019, published 2025).

What was measured:
Format in all cases: biochemical
hMeprin α = biological target: T1, hMeprin α (Homo sapiens, UniProt Q16819); experiment: Enzymatic assay, quenched peptide substrate cleavage, method A; conditions: geometric mean (geometric SD factor in parentheses), read-out: Meprin alpha IC50
T1 sequence (Q16819 66-746): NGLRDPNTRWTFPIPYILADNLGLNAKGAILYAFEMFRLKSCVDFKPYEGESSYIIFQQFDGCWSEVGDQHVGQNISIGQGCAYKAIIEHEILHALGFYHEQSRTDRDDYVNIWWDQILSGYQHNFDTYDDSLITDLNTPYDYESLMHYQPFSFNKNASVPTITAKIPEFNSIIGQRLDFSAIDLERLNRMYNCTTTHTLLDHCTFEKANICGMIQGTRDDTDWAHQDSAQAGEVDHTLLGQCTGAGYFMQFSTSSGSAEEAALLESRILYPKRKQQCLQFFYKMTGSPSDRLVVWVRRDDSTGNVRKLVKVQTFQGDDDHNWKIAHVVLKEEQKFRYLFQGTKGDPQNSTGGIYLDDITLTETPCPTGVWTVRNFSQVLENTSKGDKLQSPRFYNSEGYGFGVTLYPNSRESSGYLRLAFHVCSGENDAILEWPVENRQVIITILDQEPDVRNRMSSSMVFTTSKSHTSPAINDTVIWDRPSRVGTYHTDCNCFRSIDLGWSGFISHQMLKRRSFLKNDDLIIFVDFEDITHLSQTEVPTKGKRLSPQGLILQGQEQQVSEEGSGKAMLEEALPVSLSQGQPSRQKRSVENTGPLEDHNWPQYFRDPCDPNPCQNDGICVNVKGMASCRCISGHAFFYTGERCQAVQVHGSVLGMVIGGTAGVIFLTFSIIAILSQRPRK

hMeprin β = biological target: T2, hMeprin β (Homo sapiens, UniProt Q16820); experiment: as above; conditions: geometric mean (geometric SD factor in parentheses), read-out: Meprin beta IC50
T2 sequence (Q16820 62-701): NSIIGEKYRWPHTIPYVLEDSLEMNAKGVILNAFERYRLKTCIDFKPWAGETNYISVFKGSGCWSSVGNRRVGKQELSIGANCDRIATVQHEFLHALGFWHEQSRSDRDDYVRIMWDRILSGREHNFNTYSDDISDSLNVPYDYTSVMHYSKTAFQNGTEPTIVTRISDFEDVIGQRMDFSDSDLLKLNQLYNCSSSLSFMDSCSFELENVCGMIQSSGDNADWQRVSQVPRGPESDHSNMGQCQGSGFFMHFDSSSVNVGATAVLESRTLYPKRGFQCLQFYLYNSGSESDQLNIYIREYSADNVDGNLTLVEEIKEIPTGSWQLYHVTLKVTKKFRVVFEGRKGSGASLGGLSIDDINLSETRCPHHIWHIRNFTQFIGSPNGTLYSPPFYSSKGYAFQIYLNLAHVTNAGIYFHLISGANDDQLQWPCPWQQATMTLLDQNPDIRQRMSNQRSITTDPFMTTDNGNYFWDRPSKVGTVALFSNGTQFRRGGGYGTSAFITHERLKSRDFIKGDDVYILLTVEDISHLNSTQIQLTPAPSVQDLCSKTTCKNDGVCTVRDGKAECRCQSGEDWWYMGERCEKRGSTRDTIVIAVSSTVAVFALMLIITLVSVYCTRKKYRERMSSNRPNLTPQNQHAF

hMMP 13 = biological target: T3, hMMP 13 (Homo sapiens, UniProt P45452); experiment: Residual enzyme activity of other metalloproteases; conditions: read-out: Residual enzyme activity MMP13
T3 construct: purchased R&D systems
Procedure: (§1) A typical assay of 250 μl total volume measured in black 96 well plates consisted of 100 μl buffer, 50 μl enzyme at a final concentration of 5e-8 M to 2e-10 M, 50 μl substrate (0.15 to 80 μM, in buffer, 0.5% DMSO) and 50 μl inhibitor solution (in buffer, 1% DMSO). In case of 125 μl assay volume (black 96 half area well plates) all volumes were cut in half. Enzymatic activity of ADAMs was measured in 384 well plates with 60 μl total assay volume consisting of 20 μl inhibitor, 20 μl buffer, 10 μl enzyme and 10 μl substrate.
(§2) MMPs were activated prior to measurement by APMA (p-aminophenylmercuric acetate) treatment according to manufacturer's instructions (R&D systems).

hMMP 2 = biological target: T4, hMMP 2 (Homo sapiens, UniProt P08253); experiment: Residual enzyme activity of other metalloproteases; conditions: read-out: Residual enzyme activity MMP2
T4 construct: purchased Abnova
T4 sequence (P08253 110-660): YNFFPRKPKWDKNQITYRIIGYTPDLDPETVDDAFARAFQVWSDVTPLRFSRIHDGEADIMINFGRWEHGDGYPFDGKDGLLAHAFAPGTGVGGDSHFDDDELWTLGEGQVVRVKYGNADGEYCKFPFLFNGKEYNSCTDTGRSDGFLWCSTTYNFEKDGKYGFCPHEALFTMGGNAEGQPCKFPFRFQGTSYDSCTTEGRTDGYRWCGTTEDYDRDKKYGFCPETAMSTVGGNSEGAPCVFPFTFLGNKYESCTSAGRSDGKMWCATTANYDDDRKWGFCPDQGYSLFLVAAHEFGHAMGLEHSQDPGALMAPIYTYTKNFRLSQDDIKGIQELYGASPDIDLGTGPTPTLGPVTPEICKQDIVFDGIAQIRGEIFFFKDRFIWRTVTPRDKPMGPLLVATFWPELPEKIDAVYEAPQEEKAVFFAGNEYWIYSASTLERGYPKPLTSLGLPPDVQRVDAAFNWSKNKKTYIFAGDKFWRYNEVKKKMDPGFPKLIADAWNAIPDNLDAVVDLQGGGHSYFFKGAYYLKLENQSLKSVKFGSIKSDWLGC
Procedure: as §1, §2

In the case of `O=C(Cn1c(-c2ccccc2)cc2ccccc21)NO` [Example 25, 2-(2-Phenylindol-1-yl)ethanehydroxamic acid], the IC50 (hMeprin α) is reported as 72 nM, the IC50 (hMeprin β) is reported as 1140 nM and the remaining activity at 10 µM (hMMP 13; 10 μM inhibitor) is reported as 77%. The remaining activity at 200 µM (hMMP 13; 200 μM inhibitor) was 54%, the remaining activity at 10 µM (hMMP 2; 10 μM inhibitor) was 85% and the remaining activity at 200 µM (hMMP 2; 200 μM inhibitor) was 41%.
